Values after ≈ are worked out from the molar mass of the structure shown.

These results are taken from patent US4501699A, “Maggiemycin, anhydromaggiemycin and processes for making” (Litton Bionetics, Inc., priority 1982, dated 1985).

Assay [1] relates to L1210. The experiment in a line: In vitro cytotoxicity (growth inhibition) against L1210. The class given is cell-based, murine. The note with it: Mus musculus, dose level at which 50% inhibition of growth in vitro is noted vs. untreated controls, read-out: ED50 L1210. The source says: (§1) A suitable solvent system was developed for the isolation of pure compounds of the invention by using the following systems in TLC. (A) chloroform (100%), (B) chloroform-ethyl acetate (80:20), (C) chloroform-acetone (80:20), (D) chloroform-methanol (80:20), (E) chloroform-acetic acid (95:5), (F) chloroform-acetone-acetic acid (90:8:2), (G) chloroform-hexane-acetic acid (50:50:5), (H) ether-petroleum ether (1:1), (I) chloroform-benzene methanol (6:3:1), (J) chloroform-benzene-methanol (7:3:2), (K) benzene-ethylacetate-methanol-formic acid-water (5:5:1.5:1:0.3), (L) chloroform-hexane-methanol (5:5:1) and (M) chloroform-heptane-methanol-acetic acid (40:40:18:2). In some of the solvents the order of elution changed. […] The crude compound was therefore chromatographed on a TLC grade silica gel column eluting with chloroform (100%), chlorform-acetic acid (99:1), chloroform-acetic acid (98:2), and chloroform-acetic acid (95:5). Based on the TLC, various fractions were combined to produce a red and purple eluate. These were separately concentrated and precipitated with chloroform-petroleum ether to yield red and purple powder. The red powder has been designated as maggiemycin (NSC-D344012) and the purple powder as anhydromaggiemycin. Both these compounds were active against Bacillus subtilis and Straphylococcus aureus. […]

Assay [2] has as its system murine tumor cell lines KB, L1210 and P388. As to the kind of experiment: In vitro activity against one or all of the murine tumor cell lines KB, L1210 and P388. Type of assay: cell-based. The note with it: for in vitro antitumor activity: one or all of KB, L1210 and P388. The source says: A suitable solvent system was developed for the isolation of pure compounds of the invention by using the following systems in TLC. (A) chloroform (100%), (B) chloroform-ethyl acetate (80:20), (C) chloroform-acetone (80:20), (D) chloroform-methanol (80:20), (E) chloroform-acetic acid (95:5), (F) chloroform-acetone-acetic acid (90:8:2), (G) chloroform-hexane-acetic acid (50:50:5), (H) ether-petroleum ether (1:1), (I) chloroform-benzene methanol (6:3:1), (J) chloroform-benzene-methanol (7:3:2), (K) benzene-ethylacetate-methanol-formic acid-water (5:5:1.5:1:0.3), (L) chloroform-hexane-methanol (5:5:1) and (M) chloroform-heptane-methanol-acetic acid (40:40:18:2). In some of the solvents the order of elution changed. […] The crude compound was therefore chromatographed on a TLC grade silica gel column eluting with chloroform (100%), chlorform-acetic acid (99:1), chloroform-acetic acid (98:2), and chloroform-acetic acid (95:5). Based on the TLC, various fractions were combined to produce a red and purple eluate. These were separately concentrated and precipitated with chloroform-petroleum ether to yield red and purple powder. The red powder has been designated as maggiemycin (NSC-D344012) and the purple powder as anhydromaggiemycin. Both these compounds were active against Bacillus subtilis and Straphylococcus aureus. The in vitro antitumor activity of maggiemycin and anhydromaggiemycin against KB, P388 and L1210 murine cell lines is shown in Table 1.
The biological activity of these newly isolated anthracyclinones was compared with some of the known anthracyclinones. Each compounds was tested for in vitro activity against one or all of the murine tumor cell lines KB, L1210 and P388.

For assay [3], the system named is P388. The experiment in a line: In vitro cytotoxicity (growth inhibition) against P388. Type of assay: cell-based, murine. The following applies: Mus musculus, dose level at which 50% inhibition of growth in vitro is noted vs. untreated controls, read-out: ED50 P388.
From the text: as §1

Assay [4] concerns Straphylococcus aureus. As to the kind of experiment: Antibacterial activity against Straphylococcus aureus. The class given is cell-based.
For assay [5], the system named is Bacillus subtilis. The experiment in a line: Antibacterial activity against Bacillus subtilis. The class given is cell-based.
Assay [6] deals with KB. As to the kind of experiment: In vitro cytotoxicity (growth inhibition) against KB. Type of assay: cell-based, murine. The following applies: Homo sapiens, dose level at which 50% inhibition of growth in vitro is noted vs. untreated controls, read-out: ED50 KB.
From the text: as §1

As for `CCc1cc(O)c2c(O)c3c(c(O)c2c1C(=O)OC)C(=O)c1cccc(O)c1C3=O` [Anhydromaggiemycin], the IC50 in assay [1] came to 0.26 µg/mL (≈ 0.637 µM); in assay [3] it was 0.62 µg/mL (≈ 1.52 µM); in assay [6], 0.51 µg/mL (≈ 1.25 µM). Moreover, in assay [2], the “in vitro antitumor activity” value is “active”. The “in vitro antitumor activity, comparison of anhydromaggiemycin with maggiemycin” value in assay [2] (relative to maggiemycin) is “more active than maggiemycin”. Also, in assay [4], the “activity against Straphylococcus aureus” value is “active”. Besides, in assay [5], the “activity against Bacillus subtilis” value is listed as “active”.

Consider `COc1cccc2c1C(=O)c1c(c(O)c3cc(C(C)=O)cc(O)c3c1O)C2=O` [anhydro-7-oxidodaunorubicinone, Anhydro-7-oxidodaunorubicinone], for which the “in vitro antitumor activity” value in assay [2] is “inactive”.

Consider `CC[C@@]1(O)C[C@H](O)c2c(O)c3c(c(O)c2[C@H]1C(=O)OC)C(=O)c1cccc(O)c1C3=O` [ε-rhodomycinone, ε-Rhodomycinone, reference compound], for which the “in vitro antitumor activity” value in assay [2] was “inactive”.

In the case of `CC[C@@]1(O)CC(=O)c2c(O)c3c(c(O)c2[C@H]1C(=O)OC)C(=O)c1cccc(O)c1C3=O` [Maggiemycin], the IC50 stood at 5.2 µg/mL (≈ 12.2 µM) in assay [1], 4.4 µg/mL (≈ 10.3 µM) in assay [3] and 2.7 µg/mL (≈ 6.33 µM) in assay [6]. Also, the “in vitro antitumor activity” value in assay [2] is recorded as “active”. Also, the “activity against Straphylococcus aureus” value in assay [4] is reported as “active”. Besides, the “activity against Bacillus subtilis” value in assay [5] is given as “active”.

On to `COc1cccc2c1C(=O)c1c(O)c3c(c(O)c1C2=O)C[C@@](O)(C(C)=O)CC3=O` [7-oxidodaunorubicinone], for which, in assay [2], the “in vitro antitumor activity” value was “active”.

For the compound `COc1cccc2c1C(=O)c1c(O)c3c(c(O)c1C2=O)C[C@@](O)(C(C)=O)C[C@@H]3O` [daunorubicinone, Daunorubicinone, reference compound], the “in vitro antitumor activity” value in assay [2] was “inactive”.
